# From patent US20090209497A1, “METHOD OF TREATING LYMPHANGIOLEIOMYOMATOSIS (LAM)” (priority 2005, published 2009)
# Experiment: Doxycycline therapy of a patient with LAM: clinical improvement (FEV1, O2 saturation, 6-min walk test)
# Type: in vivo, human
# Settings: person with LAM, doxycycline 20 mg/day escalated up to 100 mg/day
# From the text: FIGS. 1A-1B show successful treatment of LAM with doxycycline: monitoring therapeutic efficacy and measuring clinical improvement. […] Data points represent single measurements taken prior to or during doxycycline therapy. A person was diagnosed with LAM in 1975 after a partial nephrectomy for angiomyolipoma. Although stable for many years, their condition had deteriorated with an FEV1 as low as 0.48 liters (21 percent of predicted), and they were placed on the lung transplant list. […] Based on these elevated MMP levels, doxycycline was initiated at an initial dose of 20 mg/day. Dose escalation (up to 100 mg/day) was determined by monthly urinary MMP profiling (FIG. 1A) and how well the drug was tolerated. […] Telegraphic speech, which was present, resolved.
smiles,measurement,setting,value
C[C@H]1c2cccc(O)c2C(=O)C2=C(O)[C@]3(O)C(=O)C(C(N)=O)=C(O)[C@@H](N(C)C)[C@@H]3[C@@H](O)[C@@H]21 [doxycycline],"FEV1, percent of predicted",before treatment 21 percent of predicted,35% of predicted
same,FEV1 (lung capacity),before treatment as low as 0.48 liters,0.91 L
